# Data from patent publication US10435388B2, “Selective inhibitors of clinically important mutants of the EGFR tyrosine kinase” (CS PHARMATECH LIMITED, priority 2016, dated 2019).
# Several values for one entry are separate records, joined by “and”; a condition that tells them apart may be missing. Equal entries are not always repeated.
# Columns and labels:
# EGFR_T790M/L858R = EGFR_T790M/L858R (Homo sapiens, UniProt P00533, L858R/T790M); test: Enzyme assay, IC50 for double-mutant EGFR (EGFR_T790M/L858R) (Caliper); format: biochemical; settings: enzyme phosphorylation assay; read-out: EGFR_L858R/T790 IC50
# [1] = system: PC9 cells (EGFR d746-750 single mutant); test: PC-9 growth inhibition assay (cell proliferation), Method A; format: cell-based, human; settings: cellular proliferation, PC9 cells, 72 h, CellTiter-Glo (Table 1); read-out: PC9 IC50 (nM) SM
# [2] = system: NCI-H1975 cells (EGFR L858R/T790 double mutant); test: H1975 inhibition assay (cell proliferation), Method A; format: cell-based; settings: cellular proliferation, NCI-H1975 cells, 72 h, CellTiter-Glo (Table 1); read-out: NCI-H1975 IC50 (nM) DM
# [3] = system: LoVo cells (unmutated EGFR wild type); test: LoVo growth inhibition assay (cell proliferation), Method A; format: cell-based; settings: cellular proliferation, 72 h, CellTiter-Glo (Table 1), read-out: LoVo IC50 (nM) WT
# Procedure: Cell Proliferation Assays—Method A
# LoVo Growth Inhibition Assay (Cell Proliferation)
# The rest of the procedure was carried out in the same manner as described for the H1975 cells.
# [4] = system: p-EGFR in PC9 cells (Exon 19 deletion EGFR); test: Exon19 deletion EGFR (activating single mutant) PC-9 cellular autophosphorylation assay; format: cell-based, human; settings: 2 h treatment, ELISA
# [5] = system: p-EGFR in H1975 cells (L858R/T790M double mutant EGFR); settings: read-out: H1975 IC50; cellular EGFR autophosphorylation, 2 h treatment, ELISA
# Procedure: Cellular EGFR Autophosphorylation Assays.
# H1975 cells were cryopreserved in liquid nitrogen. […] Remove the vial from liquid nitrogen and thaw rapidly by placing at 37° C. in a water bath with gentle agitation for 1-2 minutes and then decontaminated by wiping with 70% ethanol before opening in a Class II biological safety cabinet. Transfer the vial contents drop-wise into 10 mL of cell culture medium in a sterile 15 mL conical tube. Then centrifuged the tube at 200× g for 5 minutes and aspirate the supernatant. Re-suspend the cell pellet with 1 mL of fresh cell culture medium and transfer it in to the T75 flask containing cell culture medium.
# To passage H1975 cells, firstly, the adherent cells were rinsed with Trypsin/EDTA. Then add Trypsin/EDTA (3 mL for a T75 flask) into the flask and swirl to ensure the cells coated with trypsin evenly. Then incubate the flasks at 37° C. until the cells detach. Add equal volume of cell culture medium to stop the reaction. Collect the detached cells and centrifuged at 200× g for 5 minutes followed by re-suspended in fresh culture medium. Then, the cells were transferred into a new T75 flask containing cell culture medium. Cells were sub-cultured three times per week at a ratio of 1:4 in culture medium.
# Harvest cells from flask into cell culture medium and the cell numbers counted using Automated Cell Counter (Thermo Fisher Scientific, Countess™). Dilute the cells into 250,000 cells/mL with culture medium and add 40 μL of cell suspension into each well of 384-well cell culture plate as designated. The final concentration was 10,000 cells/well. The plates were covered with lid and placed in 37° C. 5% CO2 incubator overnight for cell attachment.
# On the second day, test compounds were dissolved in DMSO at 10 mM. […] The same volume of DMSO was adopted as high control.
# Place the plate back to 37° C. 5% CO2 incubator for 2 hours. Replace the medium of each well with ice-cold HBSS. Then remove the HBSS, add 30 μL cell lysis buffer into each well and shake the plates for 30 mins on a plate shaker. Centrifuge for 5 min at 1,000 rpm to remove bubbles and transfer 25 uL of the lysate supernatant for p-EGFR assay by using a commercial ELISA kit (R&D, DYC1095B-5).
# For estimation of IC50, the absorption readout are transformed to % relative activity by applying the following equation
# [formula] The IC50 was then calculated by fitting in XLFit (IDBS, Guildford, Surrey) to a four parameters logistic curve.
# Sequence of EGFR_T790M/L858R (P00533 25-1210 T790M/L858R): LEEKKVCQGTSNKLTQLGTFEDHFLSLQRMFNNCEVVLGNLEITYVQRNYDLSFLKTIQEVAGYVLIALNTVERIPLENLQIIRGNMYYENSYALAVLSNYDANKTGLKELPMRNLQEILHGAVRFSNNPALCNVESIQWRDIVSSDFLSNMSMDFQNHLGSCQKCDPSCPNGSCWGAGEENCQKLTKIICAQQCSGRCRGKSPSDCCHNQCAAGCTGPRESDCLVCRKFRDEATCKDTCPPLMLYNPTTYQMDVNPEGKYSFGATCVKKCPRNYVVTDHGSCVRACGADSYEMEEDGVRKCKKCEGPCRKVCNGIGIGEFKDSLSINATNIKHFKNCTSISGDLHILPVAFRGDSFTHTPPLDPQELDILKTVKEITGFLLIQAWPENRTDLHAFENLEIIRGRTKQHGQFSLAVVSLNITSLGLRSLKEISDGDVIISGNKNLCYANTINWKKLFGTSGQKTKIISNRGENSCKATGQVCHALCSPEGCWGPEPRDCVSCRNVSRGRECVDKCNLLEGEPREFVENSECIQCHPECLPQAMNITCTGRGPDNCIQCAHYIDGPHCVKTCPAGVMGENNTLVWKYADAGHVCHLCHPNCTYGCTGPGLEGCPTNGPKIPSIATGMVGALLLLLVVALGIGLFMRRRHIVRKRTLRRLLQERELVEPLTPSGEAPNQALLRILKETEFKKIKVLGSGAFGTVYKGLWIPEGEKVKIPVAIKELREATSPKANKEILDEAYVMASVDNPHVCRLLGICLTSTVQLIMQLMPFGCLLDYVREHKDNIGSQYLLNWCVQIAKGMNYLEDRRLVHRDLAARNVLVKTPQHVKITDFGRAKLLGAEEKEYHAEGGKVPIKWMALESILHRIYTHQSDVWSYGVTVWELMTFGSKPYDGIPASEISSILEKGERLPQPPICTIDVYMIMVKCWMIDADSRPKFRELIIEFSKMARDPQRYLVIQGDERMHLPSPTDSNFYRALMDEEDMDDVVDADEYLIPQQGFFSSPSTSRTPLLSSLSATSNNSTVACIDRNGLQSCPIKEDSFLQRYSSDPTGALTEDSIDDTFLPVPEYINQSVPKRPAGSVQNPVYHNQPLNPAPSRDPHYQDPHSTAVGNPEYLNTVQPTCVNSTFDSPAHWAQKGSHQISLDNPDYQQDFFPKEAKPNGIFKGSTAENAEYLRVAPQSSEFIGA
smiles,measurement,setting,value
C=CC(=O)Nc1cc(Nc2nccc(-c3c[nH]c4ccccc34)n2)c(OC)cc1N(C)CCN(C)C [AZD-5104],IC50,EGFR_T790M/L858R,1.5 nM
same,IC50,[1],3.4 nM
same,IC50,[2],2.2 nM
same,IC50,[3],3250 nM
same,IC50,[4],2.91 nM and 2.4 nM
same,IC50,[5],1.84 nM and 3.58 nM
